Measurements as given in patent US6103709A (priority 1998, dated 2000).

Tests used:
[1] = system: chloride channels in ROS 17/2.8 cells; conditions: 1 nM HL in the bath; 1α,25(OH)2 D3 5 nM or less; listed as 1β,25(OH)2 D3
Description: In each case, at least a 3-min period was allowed after the addition of the analog to the bath for currents to reach a stable amplitude value. […] Anion currents were isolated from inward Ba^2+ currents after blockade of Ca^2+ channels with 100 μM Cd^2+.

[2] = system: MAP-kinase p42^mapk in NB4 cells; experiment: MAP-kinase activation (p42mapk phosphorylation) in NB4 cells; type: cell-based, human
Description: In order to determine whether MAP-kinase phosphorylation is specific and is altered by 1α,25(OH)2 D3, the time-dependent effects of 1α,25(OH)2 D3 on p42^mapk phosphorylation was examined using human acute promyelocytic leukemia cells (NB4). In this study, the NB4 cells, cultured in 10% charcoal-stripped fetal calf serum (FCS) medium, were treated with 1α,25(OH)2 D3 at 10^-8 M for various time periods. Cells were then extracted and the phosphorylated MAP-kinase was immunoprecipitated with anti-phosphotyrosine antibody and further analyzed by Western blot using the antibodies against p42^mapk.
The lysate was further processed for anti-phosphotyrosine immunoprecipitation. […] After transferring the proteins to the PVDF membrane, the membrane was further incubated with primary anti-p42^mapk antibodies that were (+) or were not (-) pre-exposed to MAP-kinase peptide.
This example describes assays used for measurement of MAP-kinase activity in NB4 cells.
Cell culture of NB4 cells
The cell line is characterized by a translocation involving chromosomes 15 and 17, which is typical of the classical form of APL-M3 in the French-American-British [FAB] classification. NB4 cells were cultured in DMEM/F12 medium with 10% FCS at 5% CO2 balanced air and were routinely passaged as suspension cultures and only passages 8 to 20 were used for each assay.
Immunoprecipitation of Tyrosine-Phosphorylated Proteins
NB4 cells were cultured in 60-mm diameter dishes and treated with 1,25(OH)2 D3 or analogs in 4 ml of DMEM/F12 containing 10% charcoal-stripped FCS.
Insoluble material was removed in a microcentrifuge at 14,000 rpm for 10 min. Protein concentration was determined with a protein assay kit (Bio-Rad Lab, Hercules, Calif.). For immunoprecipitation, the supernatant was incubated with bead-conjugated monoclonal anti-phosphotyrosine antibody overnight at 4° C. The immunoprecipitates containing the tyrosine-phosphorylated proteins were washed four times with freshly-prepared RIPA buffer and further eluted with 2× Laemmli gel buffer.
At this point, the samples were either stored at -20° C. for further use or processed via Western blots. Equal loading of MAP-kinase protein was determined by running the Western blots using polyclonal anti-p42^mapk antibody. For this purpose, samples were aliquoted from each cell extract before immunoprecipitation.
SDS Gel Electrophoresis and Western blot
The membrane was further immunoblotted using a rabbit anti-p42^mapk polyclonal antibody overnight at 4° C. followed by incubation with secondary horseradish peroxidase-conjugated mouse anti-rabbit antibody for 1 hr at 25° C. The phosphorylated MAP-kinase bands were then visualized by enhanced chemiluminescence (ECL). A Ultrascan LX Laser Densitometer (LKB, Bromma, Sweden) scanned the density of the immuno-phosphoprotein bands. The results were normalized by protein loading and further plotted as percent of control of the band density.

rapid responses (VDRmem) = experiment: Antagonist function (summary classification); conditions: Yes/No, Tables 1 and 6
Source text: (§1) Table 6 identifies biological properties, such as genomic response, rapid response, agonist or antagonist function, binding of the analog to the vitamin binding protein (expressed as RCI), binding to the nuclear 1α,25(OH)2 D3 receptor (expressed as RCI) rapid response (expressed as % transcaltachia the rapid hormonal stimulation of intestinal calcium absorption) the classic vitamin D responses such as intestinal Ca^2+ absorption (ICA) and bone Ca^2+ mobilizing activity (BCM) determined in vivo in a vitamin D-deficient chick, and cell differentiation (expressed as % ED50), an assessment of the ability to promote the nuclear response of cell differentiation.

[3] = molecular target: T1, nuclear receptor for 1α,25(OH)2 D3 [VDRnuc] (Gallus gallus, UniProt O42392); experiment: Relative Competitive Index (steroid competition) assay, nuclear receptor VDRnuc; type: binding, chick; parameters: key to Nuclear 1α,25-D Receptor (RCI): % relative to 1α,25(OH)2D3 binding (RCI = 100%); conditions: for Nuclear 1α,25-D Receptor (RCI): RCI of 1α,25(OH)2 D3 = 100
T1 construct: VDRnuc receptor preparation from chick intestine mucosa; from tissue; host or cells: chick intestinal mucosa
T1 sequence (O42392 1-451): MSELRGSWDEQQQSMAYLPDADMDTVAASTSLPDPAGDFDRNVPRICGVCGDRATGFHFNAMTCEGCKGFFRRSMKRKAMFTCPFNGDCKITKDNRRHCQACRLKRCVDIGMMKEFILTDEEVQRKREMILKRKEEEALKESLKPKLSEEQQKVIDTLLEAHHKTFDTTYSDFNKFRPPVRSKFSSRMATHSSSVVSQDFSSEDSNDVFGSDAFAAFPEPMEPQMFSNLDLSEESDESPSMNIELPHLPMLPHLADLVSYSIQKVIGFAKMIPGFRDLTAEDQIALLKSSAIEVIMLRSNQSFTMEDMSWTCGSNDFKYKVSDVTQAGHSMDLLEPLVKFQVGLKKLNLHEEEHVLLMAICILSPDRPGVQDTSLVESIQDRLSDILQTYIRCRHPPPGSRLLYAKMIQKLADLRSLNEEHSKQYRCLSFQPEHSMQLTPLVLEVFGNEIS
Description: The ability of analogs to mediate genomic responses are directly determined by the ability of the analog in question to bind to the nuclear receptor for 1α,25(OH)2 D3 [VDRnuc ]. This ability is detected by the assay measuring Relative Competitive Index (RCI).
The assay is based upon the principles of a steroid competition assay. A fixed amount of [^3 H]1α,25(OH)2 D3 is mixed with increasing amounts of competitive analogs or the natural hormone, 1α,25(OH)2 D3, and incubated with a VDRnuc receptor preparation from chick intestine mucosa.
Ligand Receptor Competition Assay
This example describes a ligand receptor competitive assay used for determination of an analog's relative ability to bind to VDRnuc expressed as relative competitive index (RCI).
The relative affinity of nonradioactive 1α,25(OH)2 D3 and each analog to compete with [^3 H]1α,25(OH)2 D3 for binding to the VDRnuc of NB4 cells was carried out in vitro. The NB4 cells were collected from a fast growing stage and the cellular VDRnuc of 1α,25(OH)2 D3 were extracted from KTED buffer containing 10 mM Tris-HCl, pH 7.4, 300 mM KCl, 1 mM EDTA and 5 mM DTT. After sonication, the cell extract was further centrifuged at 500× g for 10 min. The supernatant was collected for use in a ligand-receptor binding assay.
In this assay, increasing concentrations (10^-10 to 10^-6 M) of nonradioactive 1α,25(OH)2 D3 or the tested analogs were incubated with NB4 cell extracts in the presence of a fixed saturating amount of 1 pmole of [^3 H]1α,25(OH)2 D3. The reciprocal of the percentage of maximal binding of [^3 H]1α,25(OH)2 D3 was then calculated and plotted as a function of the relative analog concentration versus [^3 H]1α,25(OH)2 D3. […] The competitive index value for each analog is then normalized to the competitive index value of the […], thereby generating the value of Relative Competitive Index (RCI) where the RCI for 1α,25(OH)2 D3 is defined as 100%.
The full description of the assay is found in Methods in Enzymology: Vitamins and Co-Enzymes, Vol. 67, 494-500 , Academic Press, NY(1980); Biochem. Biophys. Res. Commun., 91: 827-834 (1979); and Endocrinology, 139(2): 457-465 (1998).

HL-60 cells = experiment: Cell differentiation assay (NBT reduction); type: cell-based
Source text: The cell differentiation assay is used for a determination of relative potency of the analog vis-a-vis the potency of the reference compound 1α,25(OH)2 D3 in promoting the cell differentiation or inhibiting the cell proliferation. The results of the cell differentiation assay are expressed as the effective dose-50 (ED-50) which is defined as 50% of the concentration required for a maximal response.
Cell Differentiation Assay
After 4 days of culture in a humidified atmosphere of 5% CO2 in air at 37° C., the dishes were shaken to loosen any adherent cells. All cells were then assayed for differentiation by NBT reduction assay and for proliferation by [^3 H]thymidine incorporation.
Superoxide production was assayed by nitro blue tetrazolium-reducing activity as follows.
The percentage of cells containing black formazan deposits was determined using a hemacytometer.

VDRmem = experiment: Rapid response (summary classification); conditions: Yes/No, Tables 1 and 6
Source text: as §1

VDRnuc = experiment: Genomic response (summary classification); conditions: Yes/No, Tables 1 and 6
Source text: as §1

[4] = system: intestinal Ca2+ transport in perfused chick duodena (transcaltachia); experiment: Transcaltachia assay (rapid stimulation of 45Ca2+ transport in perfused duodena); conditions: 1α,25(OH)2 D3 = 100
Description: Duodenal loops from normal, vitamin D-replete chicks were lumenally perfused with ^45 Ca^2+ (5 uCi/ml of buffer). To establish basal transport rates, celiac artery of controls were perfused with control medium for the first 20 min. The duodena were then either re-exposed to control medium containing the vehicle ethanol (0.005%, final concentration) through the celiac artery, or vascularly perfused with 300 pM or 650 pM agonist analogs JM or JN or with 650 pM of a control reference compound 1α,25(OH)2 D3. The venous effluent was collected at 2 min intervals for liquid scintillation spectrophotometry of the ^45 Ca^2+. […] Values represent mean ±SEM for n=4 in each group.
The data shown in FIG. 13 are the mean ±SEM from 4-5 duodena. […] Open circles represent the negative control receiving no treatment with 1α,25(OH)2 D3 or analog. […] Data represent the ratio of treated to basal values ±SEM extracted from a time-course plot (as in panel A) at 32 minutes.
This example describes the assay used for testing rapid response transcaltachia described in J. Biol. Chem, 268: 13811-13819 (1993).
White Leghorn cockerels (Hyline International, Lakeview, Calif.) were obtained on the day of hatch and maintained on a vitamin D-supplemented diet (1.0% calcium and 1.0% phosphorus; O. H. Kruse Grain and Milling, Ontario, Calif.) for 5-6 weeks to prepare normal vitamin D3 -replete chicks for use in the transcaltachia studies.
Measurements of ^45 Ca^2+ transport were carried out in perfused chick duodena. Normal vitamin D-replete chicks weighing approximately 500 g were anesthetized with 0.3 ml per 100 g Chloropent (Fort Dodge, Iowa), and the duodenal loop was surgically exposed. The celiac vein and blood vessels branching off from the celiac artery were ligated before cannulation of the celiac artery itself, and vascular perfusion was immediately initiated. Both the celiac artery and vein of the duodena were perfused with modified Grey's balanced salt solution (GBSS) +0.9 mM Ca which was oxygenated with 95% O2 and 5% CO2. A basal transport rate was established by perfusion with control medium for 20 minutes after the intestinal lumen was filled with ^45 Ca^2+. The tissue was then exposed to 1α,25(OH)2 D3 or analogs or reexposed to control medium for an additional 40 minutes. The vascular perfusate was collected at 2 min intervals during the last 10 min of the basal and during the entire treatment period. Duplicate 100 μl aliquots were taken for determination of the ^45 Ca^2+ levels by liquid scintillation spectrometry.

Row | SMILES | Antagonist (rapid responses (VDRmem)) | Nuclear 1α,25-D Receptor (RCI) [3] | Rapid Response (VDRmem) | Genomic Response (VDRnuc) | further results
1 | C=C1/C(=C\C=C2/CCC[C@]3(C)[C@@H]([C@H](C)CCCC(C)(C)O)CC[C@@H]23)C[C@@H](O)C[C@H]1O [Analog HL, 1β,25-dihydroxyvitamin D3] |  |  |  |  | antagonism of 1α,25(OH)2 D3-stimulated chloride channel opening [1]: significantly reduced
2 | CC1=C(/C=C\C2=CCC[C@]3(C)[C@@H]([C@H](C)CCCC(C)(C)O)CC[C@@H]23)C[C@@H](O)C[C@@H]1O [HF] |  |  |  |  | activation of MAP-kinase versus 1α,25(OH)2 D3 ([2]; 1 minute): more than 1α,25(OH)2 D3; activation of MAP-kinase versus 1α,25(OH)2 D3 ([2]; 5 minute): only slightly less active
3 | C=C1/C(=C\C=C2/CCC[C@]3(CO)[C@@H]([C@H](C)CCCC(C)(C)O)CC[C@@H]23)C[C@@H](O)C[C@@H]1O [HS] | No | 25 | Yes | Yes | Binding to VDRnuc relative to 1α,25(OH)2 D3 (RCI) ([3]; 1α,25(OH)2 D3 = 100%, FIG. 8: chick intestine mucosa): 25%; potency at promoting cell differentiation versus 1α,25(OH)2 D3 (HL-60 cells): about twenty times more potent
4 | C=C1/C(=C\C=C2/CCC[C@]3(C)[C@@H]([C@H](C)C#Cc4cccc(C(C)(C)O)c4)CC[C@@H]23)C[C@@H](O)C[C@@H]1O [IB] | No | 1 | Yes | Yes | 
5 | CC1=C(/C=C/C2=CCC[C@]3(C)[C@@H]([C@H](C)CCCC(C)(C)O)CC[C@@H]23)C[C@@H](O)C[C@@H]1O [JB] |  |  |  |  | Rapid Trans-Caltachia, relative to 1α,25(OH)2 D3 [4]: smaller than 5%
